The record followed here is patent US20260356830A1, “COMPOUNDS FOR MODULATING RET PROTEIN” (Bristol-Myers Squibb Company, priority 2022, published 2026).

This test has as its target T1, CCDC6-RET (Homo sapiens, UniProt P07949+Q16204+Q96SW2).
T1 construct: CCDC6 (natural N-terminal fusion partner, UniProt Q16204); endogenous in cells; host or cells: TPC-1 (parental, papillary thyroid carcinoma)
Briefly: Cellular RET degradation, AlphaLISA, TPC-1 cell line. The format is cell-based. The settings on record: for Dmax: TPC1, human, 24 h, read-out: Cell Density TPC-1/CCDC6-RET Ymax %; for DC50: read-out: Cell Density TPC-1/CCDC6-RET DC50, half-maximal degradation concentration, TPC-1 (CCDC6-RET), 24 hrs. How it is done:
Cellular RET degradation compound potency was determined using the bead-based luminescent amplification assay-AlphaLISA Surefire Ultra Detection Kit (Perkin-Elmer). The CCDC6-RET fusion expressing papillary thyroid carcinoma (TPC-1) cell line was selected for screening of potential degraders: Parental (TPC-1/CCDC6-RET). Cells were plated in 384 well culture plates (Greiner Bio-One) at 10,000 cells/well in 50 ul/well DMEM (Fisher Scientific) with 2% FBS serum (Gibco). […] Low normalization wells were media only and high normalization wells were cells treated with DMSO only. Treated cell plates were placed in an incubator at 37 °C and 5% CO2 for 24 hrs. At 24 hrs, cell media was removed by a FELIX automated liquid hander (Analytik Jena) and 25 ul of cell lysis buffer (provided in AlphaLisa kit) was added to each well. […] cell lysate were transferred into a 384-well microplate (Perkin Elmer) before addition of 2.5 ul AlphaLISA Acceptor Bead mix. The plates were sealed and kept at room temperature for 1 hr before addition of donor bead mixture. Donor bead addition was performed in the dark and incubated for >1 hr before AlphaLISA luminescence was measured on an Envision plate reader with an Alphascreen aperture at RT (excitation 680 nm, emission 615 nm). RET protein abundance (and therefore degradation) directly corresponds to luminescence intensity.
Intensities were normalized relative to the average values from 16 wells containing media alone (blank-low) and 16 wells containing cells +DMSO (high). % Degradation for each well was determined using the standard equation, where
DC50 (IC50) values for each compound tested are calculated by analyzing plots of % degradation versus compound concentration, and fitting to the standard 4-parameter logistic curve where,
DC50 values are calculated according to the relationship,
Compound replicates were performed in independent assays. Maximum degradation (YMax) was defined as the maximal % degradation value from the 4-parameter logistic equation, as previously described.

The structures appear in SMILES notation. A value given as a limit tells only on which side of the number the result lay.

T1 sequence (Q16204+P07949 fused): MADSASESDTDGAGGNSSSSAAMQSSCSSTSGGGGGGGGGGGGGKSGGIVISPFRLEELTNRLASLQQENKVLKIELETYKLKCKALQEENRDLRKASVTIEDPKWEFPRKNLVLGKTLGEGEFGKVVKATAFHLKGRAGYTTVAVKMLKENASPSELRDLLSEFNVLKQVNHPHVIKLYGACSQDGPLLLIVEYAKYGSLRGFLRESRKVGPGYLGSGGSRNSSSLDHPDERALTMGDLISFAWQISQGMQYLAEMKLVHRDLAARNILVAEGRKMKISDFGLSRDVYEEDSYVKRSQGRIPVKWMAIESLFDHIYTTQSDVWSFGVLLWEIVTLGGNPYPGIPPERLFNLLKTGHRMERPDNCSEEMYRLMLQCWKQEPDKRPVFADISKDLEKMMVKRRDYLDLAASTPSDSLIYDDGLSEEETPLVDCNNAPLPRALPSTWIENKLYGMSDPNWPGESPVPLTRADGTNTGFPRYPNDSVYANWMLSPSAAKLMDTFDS
T1 sequence (Q96SW2 whole entry, the tested form may be a part): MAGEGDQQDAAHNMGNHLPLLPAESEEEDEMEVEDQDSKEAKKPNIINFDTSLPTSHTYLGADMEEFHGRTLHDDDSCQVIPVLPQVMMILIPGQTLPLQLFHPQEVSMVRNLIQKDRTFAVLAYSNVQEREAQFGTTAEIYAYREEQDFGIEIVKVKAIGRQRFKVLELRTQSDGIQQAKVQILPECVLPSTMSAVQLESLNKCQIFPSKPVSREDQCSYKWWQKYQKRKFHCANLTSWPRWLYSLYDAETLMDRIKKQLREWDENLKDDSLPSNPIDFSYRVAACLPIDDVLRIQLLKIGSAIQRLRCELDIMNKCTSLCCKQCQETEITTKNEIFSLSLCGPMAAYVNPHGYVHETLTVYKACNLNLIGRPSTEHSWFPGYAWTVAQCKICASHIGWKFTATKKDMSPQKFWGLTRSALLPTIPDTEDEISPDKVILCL
T1 sequence (Q16531 whole entry partner, the tested form may be a part): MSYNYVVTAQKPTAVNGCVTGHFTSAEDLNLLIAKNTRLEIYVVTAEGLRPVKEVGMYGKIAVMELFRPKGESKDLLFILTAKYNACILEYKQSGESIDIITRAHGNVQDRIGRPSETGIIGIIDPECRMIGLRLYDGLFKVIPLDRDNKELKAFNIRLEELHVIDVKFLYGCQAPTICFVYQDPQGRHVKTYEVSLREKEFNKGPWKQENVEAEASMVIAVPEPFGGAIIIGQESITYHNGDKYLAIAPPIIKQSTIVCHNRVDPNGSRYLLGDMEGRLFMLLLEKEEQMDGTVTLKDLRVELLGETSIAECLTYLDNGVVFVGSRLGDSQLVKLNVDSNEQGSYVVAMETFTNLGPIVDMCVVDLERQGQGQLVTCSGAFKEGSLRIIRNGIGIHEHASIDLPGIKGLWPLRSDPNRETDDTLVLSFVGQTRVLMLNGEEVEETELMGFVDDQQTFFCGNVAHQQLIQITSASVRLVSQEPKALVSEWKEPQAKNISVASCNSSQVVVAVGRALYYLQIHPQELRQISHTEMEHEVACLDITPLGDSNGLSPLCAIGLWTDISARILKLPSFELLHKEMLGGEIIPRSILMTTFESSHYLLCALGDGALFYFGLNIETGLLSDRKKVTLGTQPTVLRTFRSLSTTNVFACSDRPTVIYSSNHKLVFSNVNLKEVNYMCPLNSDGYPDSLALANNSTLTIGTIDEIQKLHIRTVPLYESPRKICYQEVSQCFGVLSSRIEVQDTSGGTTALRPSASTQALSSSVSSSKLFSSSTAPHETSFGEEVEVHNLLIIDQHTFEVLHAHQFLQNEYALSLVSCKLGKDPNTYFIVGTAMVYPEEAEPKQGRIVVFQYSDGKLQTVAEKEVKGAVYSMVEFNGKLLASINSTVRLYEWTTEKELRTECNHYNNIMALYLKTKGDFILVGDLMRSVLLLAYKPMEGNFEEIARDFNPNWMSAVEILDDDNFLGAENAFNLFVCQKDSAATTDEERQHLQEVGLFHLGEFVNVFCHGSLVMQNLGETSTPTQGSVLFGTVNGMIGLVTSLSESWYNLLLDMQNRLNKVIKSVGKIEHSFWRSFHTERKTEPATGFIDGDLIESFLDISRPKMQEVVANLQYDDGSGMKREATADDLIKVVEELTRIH

For the compound `CCOc1cc(-c2ccc(N3CCC(CN4CCN(CCOCCOCCC(=O)N5CCN(c6ccc7c(c6)CN(C6CCC(=O)NC6=O)C7=O)CC5)CC4)(NC(=O)c4cc(F)ccc4F)CC3)nc2)c2c(C#N)cnn2c1` (stereo not drawn) [Example 109, N-[1-(5-{3-cyano-6-ethoxypyrazolo[1,5-a]pyridin-4-yl}pyridin-2-yl)-4-[(4-{2-[2-(3-{4-[2-(2,6-dioxopiperidin-3-yl)-1-oxo-2,3-dihydro-1H-isoindol-5-yl]piperazin-1-yl}-3-oxopropoxy)ethoxy]ethyl}piperazin-1-yl)methyl]piperidin-4-yl]-2,5-difluorobenzamide], the Dmax was in the range of 60 to 90% and the DC50 fell in the range of 0.01 to 0.1 µM.

As for `CCOc1cc(-c2ccc(N3CCC(CN4CCN(C(=O)CCN5CC(c6ccc7c(c6)CN(C6CCC(=O)NC6=O)C7=O)C5)CC4)(NC(=O)c4cc(F)ccc4F)CC3)nc2)c2c(C#N)cnn2c1` (stereo not drawn) [Example 119, N-[1-(5-{3-cyano-6-ethoxypyrazolo[1,5-a]pyridin-4-yl}pyridin-2-yl)-4-{[4-(3-{3-[2-(2,6-dioxopiperidin-3-yl)-1-oxo-2,3-dihydro-1H-isoindol-5-yl]azetidin-1-yl}propanoyl)piperazin-1-yl]methyl}piperidin-4-yl]-2,5-difluorobenzamide], the Dmax was over 90% and the DC50 was in the range of 0.002 to 0.01 µM.

As to `CCOc1cc(-c2ccc(N3CCC(Cc4ccccc4)(NC(=O)C4CCN(C(=O)CCN5CCC(c6ccc7c(c6)CN(C6CCC(=O)NC6=O)C7=O)CC5)CC4)CC3)nc2)c2c(C#N)cnn2c1` (stereo not drawn) [Example 66, N-[4-benzyl-1-(5-{3-cyano-6-ethoxypyrazolo[1,5-a]pyridin-4-yl}pyridin-2-yl)piperidin-4-yl]-1-(3-{4-[2-(2,6-dioxopiperidin-3-yl)-1-oxo-2,3-dihydro-1H-isoindol-5-yl]piperidin-1-yl}propanoyl)piperidine-4-carboxamide], the Dmax is 60 to 90% and the DC50 is under 0.002 µM.

Take `CCOc1cc(-c2ccc(N3CCC(CN4CCN(C(=O)CCCCN5CCN(c6ccc7c(N8CCC(=O)NC8=O)nn(C)c7c6)CC5)CC4)(NC(=O)c4cc(F)ccc4F)CC3)nc2)c2c(C#N)cnn2c1` [Example 40, N-(1-(5-(3-cyano-6-ethoxypyrazolo[1,5-a]pyridin-4-yl)pyridin-2-yl)-4-((4-(5-(4-(3-(2,4-dioxotetrahydropyrimidin-1(2H)-yl)-1-methyl-1H-indazol-6-yl)piperazin-1-yl)pentanoyl)piperazin-1-yl)methyl)piperidin-4-yl)-2,5-difluorobenzamide]: the Dmax was over 90% and the DC50 lay within 0.002 to 0.01 µM.

Regarding `CCOc1cc(-c2ccc(N3CCC(CN4CCN(C(=O)CCCCN5CCC(c6ccc7c(c6)C(=O)N(C6CCC(=O)NC6=O)C7)CC5)CC4)(NC(=O)c4cc(F)ccc4F)CC3)nc2)c2c(C#N)cnn2c1` (stereo not drawn) [Example 18, N-[1-(5-{3-cyano-6-ethoxypyrazolo[1,5-a]pyridin-4-yl}pyridin-2-yl)-4-{[4-(5-{4-[2-(2,6-dioxopiperidin-3-yl)-3-oxo-2,3-dihydro-1H-isoindol-5-yl]piperidin-1-yl}pentanoyl)piperazin-1-yl]methyl}piperidin-4-yl]-2,5-difluorobenzamide], the Dmax is over 90% and the DC50 was under 0.002 µM.

Consider `CCOc1cc(-c2ccc(N3CCC(CN4CCN(C(=O)CCCCCCCCNc5ccc(C6CCC(=O)NC6=O)cc5)CC4)(NC(=O)c4cc(F)ccc4F)CC3)nc2)c2c(C#N)cnn2c1` (stereo not drawn) [Example 21, N-[1-(5-{3-cyano-6-ethoxypyrazolo[1,5-a]pyridin-4-yl}pyridin-2-yl)-4-{[4-(9-{[4-(2,6-dioxopiperidin-3-yl)phenyl]amino}nonanoyl)piperazin-1-yl]methyl}piperidin-4-yl]-2,5-difluorobenzamide], for which the Dmax was in the range of 60 to 90% and the DC50 was 0.01 to 0.1 µM.

As to `CCOc1cc(-c2ccc(N3CCC(CN4CCN(C5CN(C(=O)c6ccc7c(c6)CN(C6CCC(=O)NC6=O)C7=O)C5)CC4)(NC(=O)c4cc(F)ccc4F)CC3)nc2)c2c(C#N)cnn2c1` (stereo not drawn) [Example 63, N-[1-(5-{3-cyano-6-ethoxypyrazolo[1,5-a]pyridin-4-yl}pyridin-2-yl)-4-[(4-{1-[2-(2,6-dioxopiperidin-3-yl)-1-oxo-2,3-dihydro-1H-isoindole-5-carbonyl]azetidin-3-yl}piperazin-1-yl)methyl]piperidin-4-yl]-2,5-difluorobenzamide], the Dmax fell in the range of 60 to 90% and the DC50 fell in the range of 0.002 to 0.01 µM.

On to `CCOc1cc(-c2ccc(N3CCC(NC(=O)c4cc(F)ccc4F)(C(=O)NCCCCCCN4CCC(c5ccc6c(c5)CN(C5CCC(=O)NC5=O)C6=O)CC4)CC3)nc2)c2c(C#N)cnn2c1` (stereo not drawn) [Example 157, 1-(5-{3-cyano-6-ethoxypyrazolo[1,5-a]pyridin-4-yl}pyridin-2-yl)-4-(2,5-difluorobenzamido)-N-(6-{4-[2-(2,6-dioxopiperidin-3-yl)-1-oxo-2,3-dihydro-1H-isoindol-5-yl]piperidin-1-yl}hexyl)piperidine-4-carboxamide], for which the Dmax was over 90% and the DC50 fell in the range of 0.002 to 0.01 µM.

As to `CCOc1cc(-c2ccc(N3CCC(CN4CCN(C(=O)CCN5CC(Oc6ccc7c(c6)CN(C6CCC(=O)NC6=O)C7=O)C5)CC4)(NC(=O)c4cc(F)ccc4F)CC3)nc2)c2c(C#N)cnn2c1` (stereo not drawn) [Example 120, N-[1-(5-{3-cyano-6-ethoxypyrazolo[1,5-a]pyridin-4-yl}pyridin-2-yl)-4-({4-[3-(3-{[2-(2,6-dioxopiperidin-3-yl)-1-oxo-2,3-dihydro-1H-isoindol-5-yl]oxy}azetidin-1-yl)propanoyl]piperazin-1-yl}methyl)piperidin-4-yl]-2,5-difluorobenzamide], the Dmax is over 90% and the DC50 was under 0.002 µM.

Take `CCOc1cc(-c2ccc(N3CCC(NC(=O)c4cc(F)ccc4F)(C(=O)NCCCCCCCCCCNc4ccc5c(N6CCC(=O)NC6=O)nn(C)c5c4)CC3)nc2)c2c(C#N)cnn2c1` [Example 153, 1-(5-{3-cyano-6-ethoxypyrazolo[1,5-a]pyridin-4-yl}pyridin-2-yl)-4-(2,5-difluorobenzamido)-N-(10-{[3-(2,4-dioxo-1,3-diazinan-1-yl)-1-methyl-1H-indazol-6-yl]amino}decyl)piperidine-4-carboxamide]: the Dmax is over 90% and the DC50 lay in the range of 0.002 to 0.01 µM.

Turning to `CCOc1cc(-c2ccc(N3CCC(CN4CCN(C(=O)CCN5CCC(Oc6ccc7c(c6)CN(C6CCC(=O)NC6=O)C7=O)CC5)CC4)(NC(=O)c4cc(F)ccc4F)CC3)nc2)c2c(C#N)cnn2c1` (stereo not drawn) [Example 118, N-[1-(5-{3-cyano-6-ethoxypyrazolo[1,5-a]pyridin-4-yl}pyridin-2-yl)-4-({4-[3-(4-{[2-(2,6-dioxopiperidin-3-yl)-1-oxo-2,3-dihydro-1H-isoindol-5-yl]oxy}piperidin-1-yl)propanoyl]piperazin-1-yl}methyl)piperidin-4-yl]-2,5-difluorobenzamide], the Dmax is 60 to 90% and the DC50 lay within 0.002 to 0.01 µM.

Turning to `CCOc1cc(-c2ccc(N3CCC(Cc4ccccc4)(NC(=O)CN4CCN(C(=O)CCN5CCC(c6ccc7c(c6)C(=O)N(C6CCC(=O)NC6=O)C7)CC5)CC4)CC3)nc2)c2c(C#N)cnn2c1` (stereo not drawn) [Example 53, N-[4-benzyl-1-[5-(3-cyano-6-ethoxy-pyrazolo[1,5-a]pyridin-4-yl)-2-pyridyl]-4-piperidyl]-2-[4-[3-[4-[2-(2,6-dioxo-3-piperidyl)-3-oxo-isoindolin-5-yl]-1-piperidyl]propanoyl]piperazin-1-yl]acetamide], the Dmax lay within 60 to 90% and the DC50 lay in the range of 0.01 to 0.1 µM.
